According to patent US20170027172A1, “USE OF SUBSTITUTE OXO TETRAHYDROQUINOLINE SULFONAMIDES OR SALTS THEREOF FOR RAISING STRESS TOLERANCE OF PLANTS” (BAYER CROPSCIENCE AKTIENGESELLSCHAFT, priority 2014, published 2017):

Experiments:
Brassica napus [1] = assay: Drought stress greenhouse test Part B, visual scoring vs stressed control plants; type: in vivo; design: key: 0: no effect; 10: slight positive effect; 20: clear positive effect; 30: strong positive effect; details: efficacy range of 2-3 pots
Procedure: (§1) Seeds of monocotyledonous and dicotyledonous crop plants were sown in sandy loam in plastic pots, covered with soil or sand and cultivated in a greenhouse under good growth conditions. The trial plants were treated at the early leaf stage (BBCH10-BBCH13). To assure uniform water supply before commencement of stress, the potted plants were supplied with water by dam irrigation prior to substance application.
(§2) The inventive compounds formulated in the form of wettable powders (WP) were sprayed onto the green parts of the plants as an aqueous suspension at an equivalent water application rate of 600 l/ha with addition of 0.2% wetting agent (e.g. agrotin). Substance application was followed immediately by stress treatment of the plants.
(§3) Drought stress was induced by gradual drying out under the following conditions:
(§4) “Day”: 14 hours with illumination at 26-30° C. “Night”: 10 hours without illumination at 18-20° C.
The duration of the respective stress phases was guided mainly by the condition of the stressed control plants. […]
(§5) Once this juncture had been reached, the appearance of the plants treated with test substances was recorded in comparison to the stressed control plants by the following categories:
For each substance and dosage, 2-3 pots were treated and evaluated. […]

[2] = target: T1, phosphatase ABI1 via the co-regulator RCAR11/PYR1 (Arabidopsis thaliana, UniProt O49686+P49597); assay: In vitro inhibition of the phosphatase ABI1 via the co-regulator RCAR11/PYR1, MUP dephosphorylation; type: biochemical; design: dose or concentration left out as unconfirmed; details: in a solution of DMSO and water; fluorescence at 460 nm
T1 sequence (O49686 1-191): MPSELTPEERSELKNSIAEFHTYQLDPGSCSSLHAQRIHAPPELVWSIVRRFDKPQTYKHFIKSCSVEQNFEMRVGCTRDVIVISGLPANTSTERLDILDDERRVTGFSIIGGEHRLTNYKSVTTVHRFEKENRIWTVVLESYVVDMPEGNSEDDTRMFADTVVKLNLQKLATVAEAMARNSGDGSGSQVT
T1 sequence (P49597 1-434): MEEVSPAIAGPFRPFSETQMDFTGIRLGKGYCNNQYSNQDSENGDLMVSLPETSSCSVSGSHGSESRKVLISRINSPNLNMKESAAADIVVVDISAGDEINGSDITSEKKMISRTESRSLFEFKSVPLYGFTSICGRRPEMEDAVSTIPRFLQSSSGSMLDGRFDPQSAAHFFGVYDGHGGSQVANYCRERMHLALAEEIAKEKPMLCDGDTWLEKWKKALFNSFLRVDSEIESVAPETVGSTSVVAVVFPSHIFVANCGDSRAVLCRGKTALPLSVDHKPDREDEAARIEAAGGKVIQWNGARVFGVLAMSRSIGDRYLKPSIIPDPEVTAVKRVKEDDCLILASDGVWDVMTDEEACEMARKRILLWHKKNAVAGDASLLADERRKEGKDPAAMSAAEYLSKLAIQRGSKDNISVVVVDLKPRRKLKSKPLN
Procedure, shortened: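 Arabidopsis ABI1 (0.15 μg/well) with RCAR11/PYR1 (0.30 μg/well) in Tris-HCl pH 8, NaCl, MnCl2, DTT, Tween20; MUP substrate, 20 min at 35 °C, fluorescence ex 340/em 460 nm. Compounds tested at 5 mM in DMSO/water, optionally pre-treated with porcine liver esterase; inhibition banded ≥90/70/50/30%.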

Brassica napus [3] = assay: Drought stress greenhouse test Part C, visual scoring vs stressed control plants; type: in vivo; design: key: 0: no effect; 10: slight positive effect; 20: clear positive effect; 30: strong positive effect; details: spray application 250 g/ha, efficacy range of 3-4 pots
Procedure: Seeds of monocotyledonous and dicotyledonous crop plants were sown in sandy loam in plastic or wood-fiber pots, covered with soil or sand and cultivated in a greenhouse under good growth conditions. The trial plants were treated at the early leaf stage (BBCH10-BBCH13). To assure uniform water supply before commencement of stress, the potted plants were supplied with water by dam irrigation prior to substance application. The inventive compounds were first formulated as wettable powders (WP) or dissolved in a solvent mixture. The further dilution was effected with water supplemented with 0.2% wetting agent (e.g. agrotin). The finished spray liquor was sprayed onto the green parts of the plant at an equivalent water application rate of 600 l/ha. Substance application was followed immediately by stress treatment of the plants. For this purpose, the wood-fiber pots were transferred in plastic inserts in order to prevent them from subsequently drying out too quickly. Drought stress was induced by gradual drying out under the following conditions: “Day”: 14 hours with illumination at 26-30° C. […] Once this juncture had been reached, the appearance of the plants treated with test substances was recorded in comparison to the stressed control plants by the following categories: [table] For each substance and dosage, 3-4 pots were treated and evaluated. […]

Triticum aestivum [4] = assay: Drought stress greenhouse test Part B, visual scoring vs stressed control plants; type: in vivo; details: spray application 25 g/ha, efficacy range of 2-3 pots
Procedure: as §1, §2, §3, §4
(§6) The duration of the respective stress phases was guided mainly by the condition of the stressed control plants. It was ended (by re-irrigating and transfer to a greenhouse with good growth conditions) as soon as irreversible damage was observed on the stressed control plants.
(§7) The end of the stress phase was followed by an about 4-7-day recovery phase, during which the plants were once again kept under good growth conditions in a greenhouse. The duration of the recovery phase was guided mainly by when the trial plants had attained a state which enabled visual scoring of potential effects, and is therefore variable.
as §5
For each substance and dosage, 2-3 pots were treated and evaluated.
(§8) BRSNS=Brassica napus TRZAS=Triticum aestivum

Triticum aestivum [5] = assay: Drought stress greenhouse test Part A, visual scoring vs stressed control plants; type: in vivo; design: key: 0: no effect; 10: slight positive effect; 20: clear positive effect; 30: strong positive effect; details: average score of 3 pots
Procedure: as §1, §2, §3
(§9) “Day”: 14 hours with illumination at ˜26-30° C. “Night”: 10 hours without illumination at ˜18-20° C.
as §6
as §7, with “and was” for “and is”
as §5
(§10) In order to rule out any influence on the effects observed by any fungicidal or insecticidal action of the test compounds, it was additionally ensured that the tests proceeded without fungal infection or insect infestation.
(§11) In each test, for each crop and dosage, plants in 3 pots were treated and evaluated separately. The values reported in Tables A-1 to A-2 below for the effects obtained are averages from the scores obtained.
as §8

Brassica napus [6] = assay: as above; type: in vivo; design: key: 0: no effect; 10: slight positive effect; 20: clear positive effect; 30: strong positive effect; details: spray application 250 g/ha, average score of 3 pots
Procedure: as §1, §2, §3, §9, §6
as §7, with “and was” for “and is”
as §5, §10, §11, §8

Row | ABI1 inhibition [2] | SMILES | Effect (BRSNS) (Brassica napus [6]) | also measured
1 | +++ (90%>inhibition≧70%) | O=C1CCc2cc(NS(=O)(=O)Cc3cc(F)cc(F)c3)ccc2N1CC1CC1 [A19-164] |  | Effect (BRSNS) (Brassica napus [1]; spray application 2.5 g/ha): 20
2 | ++++ (inhibition≧90%) | COCN1C(=O)CCc2cc(NS(=O)(=O)Cc3ccc(C(F)(F)F)cc3)ccc21 [A49-178] |  | Effect (BRSNS) (Brassica napus [3]): 20
3 |  | N#CCN1C(=O)CCc2cc(NS(=O)(=O)Cc3ccc(Br)cc3)ccc21 [A16-172] |  | Effect (TRZAS) (Triticum aestivum [4]): 10-20; Effect (BRSNS) (Brassica napus [1]; spray application 25 g/ha): 20
4 | ++++ (inhibition≧90%) | O=C1CCc2cc(NS(=O)(=O)Cc3ccc(F)cc3)ccc2N1CC1CC1 [A19-158] | 20 | Effect (TRZAS) (Triticum aestivum [5]; spray application 25 g/ha): 20-30; Effect (TRZAS) (Triticum aestivum [5]; spray application 250 g/ha): 20-30
5 | ++++ (inhibition≧90%) | O=C1CCc2cc(NS(=O)(=O)Cc3ccc(C(F)(F)F)cc3)ccc2N1CC1CC1 [A19-178] | 20 | 
